Laboratory results taken from EP4721737A1, “USE OF PHARMACEUTICAL COMPOSITION COMPRISING COMPOUND HAVING BIS(AZANYLYLIDENE) SULFONYL STRUCTURE FOR TREATING ANEMIA-RELATED DISEASES” (Scinnohub Pharmaceutical Co., Ltd., priority 2023, dated 2024).
Like-named read-outs stand apart in the source and are kept apart here.

Key:
[1] = molecular target: T1, PKR in ex vivo red blood cells of patients with thalassemia (Homo sapiens, UniProt P30613); test: ex vivo pyruvate kinase (PKR) activity experiment, red blood cells of patients with thalassemia; assay type: cell-based
T1 construct: endogenous in cells; host or cells: human red blood cells of thalassemia patients (Patients A-D)
T1 sequence (P30613 whole entry): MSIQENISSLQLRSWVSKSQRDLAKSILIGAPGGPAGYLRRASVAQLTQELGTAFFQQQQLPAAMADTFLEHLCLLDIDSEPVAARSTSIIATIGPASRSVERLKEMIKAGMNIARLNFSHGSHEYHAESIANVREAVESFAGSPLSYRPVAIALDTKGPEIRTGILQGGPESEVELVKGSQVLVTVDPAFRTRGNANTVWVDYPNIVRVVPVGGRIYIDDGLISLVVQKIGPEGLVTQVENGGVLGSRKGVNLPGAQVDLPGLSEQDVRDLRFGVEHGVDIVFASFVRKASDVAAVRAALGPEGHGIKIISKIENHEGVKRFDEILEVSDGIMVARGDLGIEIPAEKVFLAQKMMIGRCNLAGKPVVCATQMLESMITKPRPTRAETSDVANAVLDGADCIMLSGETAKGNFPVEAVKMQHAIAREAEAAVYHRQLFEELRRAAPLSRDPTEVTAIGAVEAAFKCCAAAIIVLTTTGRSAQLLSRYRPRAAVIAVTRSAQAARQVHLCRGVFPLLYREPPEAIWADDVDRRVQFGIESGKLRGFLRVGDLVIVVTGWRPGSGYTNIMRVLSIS
Description: To test the effects of the compound of the present disclosure on PKR activation in ex vivo red blood cells from healthy individuals and patients with thalassemia.
• i. 5 g of glucose, 85 mg of adenine, and 2.625 g of mannitol were weighed and added into a 50 mL centrifuge tube. 40 mL of PBS was added to dissolve (sonicate for 30 minutes until completely dissolved). The solution was filtered through a 0.22 µm filter, then added to 460 mL of sterile PBS and mixed thoroughly.
• i. Fresh human peripheral blood was collected. K2EDTA was used as the anticoagulant. 1 part anticoagulant with 9 parts blood was mixed, then centrifuged at 500 g for 10 minutes at room temperature to remove the plasma. • ii. Packed red blood cells: 1.5 volumes of PBS were added, then centrifuged at 2000 ×g for 5 minutes at room temperature. After centrifugation, the supernatant was removed. This step was repeated twice. • iii. Diluted red blood cells: 1.5 volumes of PBS were added, then resuspended and mixed thoroughly. • iv. The diluted red blood cells were slowly added to 0.5 volume of 70% isotonic solution (e.g., 7.5 mL of diluted red blood cells + 3 mL of 70% isotonic solution Percoll) and centrifuged at 4000 ×g for 20 minutes at 4°C. • v. The supernatant was removed. The red blood cells at the bottom were washed once with 4-5 mL of PBS to elute the Percoll gel, and then centrifuged at 2000 ×g for 5 minutes at room temperature. • vi. The supernatant was removed. The red blood cells were counted and then diluted in AGAM medium containing 10% FBS to a density of 2 × 10^8 cells/mL for storage at 4°C.
i. The red blood cells were seeded into a 96-well plate at a uniform density of 1 × 10^7 cells/mL, with 100 µL per well. The test compounds (dissolved in DMSO) were diluted and added to the cell culture medium, resulting in final compound concentrations of 3000, 1000, 300, 100, 10, 3, and 1 nM (with 1% DMSO). The cells and compounds were co-cultivated for 3 hours in a 37°C incubator with 5% CO2. Subsequently, the plate was centrifuged at 2000 g for 20 minutes, and the supernatant was discarded. 100 µL of red blood cell lysis buffer was added to the cell pellet, vortexed for 20 minutes, and centrifuged at 4000 g for 5 minutes. The supernatant was collected for analysis. ii. The reaction system was prepared according to the kit instructions (shown as the table below), 10 µL of the reaction system was added to each well of a 384-well plate, and 10 µL of red blood cell lysis buffer was took and mixed well (20 µL reaction system).
iii. A black, transparent-bottomed 384-well plate was placed in a microplate reader to measure fluorescence at 540/590 nm. The fluorescence was read every 2 minutes for 1 hour.
i. The Slope value was calculated over the assay time. Compound activation percentage was calculated using the 1% DMSO well as the control well. Activation percentage = (Slope of compound well / Slope of control well) × 100% ii. Dose-response curve was fit using the logarithmic compound concentration on the X-axis and the percent activation percentage on the Y-axis, the log(agonist) vs. response - variable slope function in GraphPad Prism 5 was used to determine the AC50 value for each compound on PKR activity. Y = min + (max−min)/(1+10^(∧)((LogAC50−X)×Hillslope)). [formula] The PKR agonist effects of the compound of the present disclosure on ex vivo red blood cells from healthy individuals and thalassemia patients were determined using the above assay. The AC50 values measured on ex vivo red blood cells from healthy individuals are as follows (A represents 0-100 nM, B represents 101-300 nM, and C represents 300-1000 nM): […]

wild-type mice = test: in vivo efficacy study in wild-type mice (HGB, ATP, 2,3-DPG in whole blood); settings: C57BL/6J, whole blood 2-3 hours after last administration; for HGB: vehicle control 14.9; for ATP: vehicle control 452.0; for 2,3-DPG: vehicle control 1727.8
Description: The effects of the compound on wild-type mice were evaluated by detecting the concentrations of HGB, ATP, and 2,3-DPG in the whole blood of mice.
• i. On the day of administration, the compound was weighed, then the vehicle was added to prepare the administration solution: vehicle: 5% DMSO + 10% Solutol + 85% Saline
i. Wild-type mice were randomly divided into groups based on body weight, with 8 mice per group.
• i. Whole blood sample was collected 2-3 hours after the last administration of the test animal for HGB assay.
• i. An LC-MS/MS method was established to determine the ATP and 2,3-DPG contents in whole blood sample 2-3 hours after the last administration of the test animal.

[2] = pharmacokinetic properties test in rats; assay type: in vivo; settings: SD rat, single, plasma; for MRT last: read-out: MRT0-t; for Vd: read-out: Vss
Description: (§1) The pharmacokinetic properties of the compounds of the present disclosure in different animal species were investigated by measuring plasma drug concentrations following intravenous and oral gavage in mouse, rat, and dog.
(§2) i. The compounds were weighed, then the solvent (5% DMSO + 10% Solutol + 85% saline) was added to prepare the administration solution. ii. On the day before the experiment, animals in the oral administration group were fasted overnight (10-14 hours) and fed 4 hours after administration. iii. At each time point after administration, approximately 30 µL of venous blood was collected from an appropriate location in each group of animals and placed in a sodium heparin tube. Blood samples were placed on ice and centrifuged within 1 hour to separate plasma (centrifugation conditions: 6800 g, 6 min, 2-8°C). Plasma samples were stored at -80°C until analysis.
(§3) b) An LC-MS/MS analytical method was developed for measuring compound concentrations in mouse, rat, and dog plasma. This method was used to determine compound concentrations in biological samples obtained in this assay.
(§4) Pharmacokinetic parameters were calculated using Phoenix WinNonlin 7.0 using plasma drug concentration data at different time points.

[3] = pharmacokinetic properties test in dogs; assay type: in vivo; settings: dog, Beagle, single, plasma; for MRT last: read-out: MRT0-t; for Vd: read-out: Vss
Description: as §1, §2, §3, §4

[4] = thalassemia Patient A, read-out: AC50 (nM) Patient A
[5] = thalassemia Patient B, read-out: AC50 (nM) Patient B
[6] = thalassemia Patient C, read-out: AC50 (nM) Patient C
[7] = thalassemia Patient D, read-out: AC50 (nM) Patient D
[8] = 2.5 mg/kg oral gavage twice a day 14 days
[9] = 7.5 mg/kg oral gavage twice a day 14 days
[10] = 25 mg/kg oral gavage twice a day 14 days
[11] = 15 mg/kg oral gavage twice a day 14 days
[12] = 50 mg/kg oral gavage twice a day 14 days
[13] = 75 mg/kg oral gavage twice a day 14 days

Row | SMILES | AC50 [1, 4] [nM] | AC50 [1, 5] [nM] | AC50 [1, 6] [nM] | AC50 [1, 7] [nM] | AUC(0-t) ([2]; 1 mg/kg intravenous injection) [ng·h/mL] | Cmax ([2]; 1 mg/kg intravenous injection) [ng/mL] | Tmax ([2]; 1 mg/kg intravenous injection) [h] | clearance ([2]; 1 mg/kg intravenous injection) [mL/min/kg] | half-life ([2]; 1 mg/kg intravenous injection) [h] | MRT last ([2]; 1 mg/kg intravenous injection) [h] | Vd ([2]; 1 mg/kg intravenous injection) [L/kg] | AUC(0-t) ([2]; 10 mg/kg oral gavage, fasted) [ng·h/mL] | Cmax ([2]; 10 mg/kg oral gavage, fasted) [ng/mL] | Tmax ([2]; 10 mg/kg oral gavage, fasted) [h] | half-life ([2]; 10 mg/kg oral gavage, fasted) [h] | MRT last ([2]; 10 mg/kg oral gavage, fasted) [h] | AUC(0-t) ([3]; 2 mg/kg intravenous injection) [ng·h/mL] | Cmax ([3]; 2 mg/kg intravenous injection) [ng/mL] | Tmax ([3]; 2 mg/kg intravenous injection) [h] | clearance ([3]; 2 mg/kg intravenous injection) [mL/min/kg] | also measured
1 | N#Cc1ccc(S(=O)(=O)N2CC(=C3CN(C(=O)[C@H](CO)c4ccccc4)C3)C2)cc1 [Compound 65, (S)-4-(1'-(3-hydroxy-2-phenylpropionyl)-1',4'-dihydro-2H,2'H-[3,3'-diazetidinylidene]-1(4H)-ylsulfonyl)benzonitrile] | 251 | 84.4 | 140 | 145 | 394 | 689 | 0.08 | 42.2 | 0.64 | 0.58 | 1.56 | 1730 | 993 | 0.25 | 1.53 | 2.24 | 8570 | 1770 | 0.14 | 3.72 | HGB (wild-type mice; [8]): 15.1 g/dL; ATP (wild-type mice; [8]): 481.5 µg/mL; 2,3-DPG (wild-type mice; [8]): 1417.4 µg/mL; HGB (wild-type mice; [9]): 14.9 g/dL; ATP (wild-type mice; [9]): 486.5 µg/mL; 2,3-DPG (wild-type mice; [9]): 1417.4 µg/mL; HGB (wild-type mice; [10]): 14.9 g/dL; ATP (wild-type mice; [10]): 475.9 µg/mL; 2,3-DPG (wild-type mice; [10]): 1363.0 µg/mL; half-life ([3]; 2 mg/kg intravenous injection): 5.81 h; MRT last ([3]; 2 mg/kg intravenous injection): 5.53 h; Vd ([3]; 2 mg/kg intravenous injection): 1.55 L/kg; AUC(0-t) ([3]; 5 mg/kg oral gavage, fasted): 19500 ng·h/mL; Cmax ([3]; 5 mg/kg oral gavage, fasted): 2480 ng/mL; Tmax ([3]; 5 mg/kg oral gavage, fasted): 1.33 h; half-life ([3]; 5 mg/kg oral gavage, fasted): 4.47 h; MRT last ([3]; 5 mg/kg oral gavage, fasted): 5.28 h
2 | O=C([C@H](CO)c1ccc(F)cc1F)N1CC(=C2CN(S(=O)(=O)c3ccccn3)C2)C1 [Compound 83, (S)-2-(2,4-difluorophenyl)-3-hydroxy-1-(1'-(pyridin-2-ylsulfonyl)-1',4'-dihydro-2H,2'H-[3,3'-diazetidinylidene]-1(4H)-yl)propan-1-one] | 21.8 | 20.9 | 24.8 | 11.7 | 537 | 731 | 0.08 | 29.9 | 4.91 | 2.12 | 5.11 | 3300 | 1740 | 0.25 | 3.43 | 3.2 | 3110 | 1590 | 0.08 | 11.2 | HGB (wild-type mice; [11]): 15.3 g/dL; ATP (wild-type mice; [11]): 476.9 µg/mL; 2,3-DPG (wild-type mice; [11]): 1454.1 µg/mL; HGB (wild-type mice; [12]): 15.4 g/dL; ATP (wild-type mice; [12]): 472.1 µg/mL; 2,3-DPG (wild-type mice; [12]): 1444.5 µg/mL; HGB (wild-type mice; [13]): 14.6 g/dL; ATP (wild-type mice; [13]): 474.1 µg/mL; 2,3-DPG (wild-type mice; [13]): 1441.8 µg/mL; half-life ([3]; 2 mg/kg intravenous injection): 3.72 h; MRT last ([3]; 2 mg/kg intravenous injection): 2.79 h; Vd ([3]; 2 mg/kg intravenous injection): 1.93 L/kg; AUC(0-t) ([3]; 5 mg/kg oral gavage, fasted): 12200 ng·h/mL; Cmax ([3]; 5 mg/kg oral gavage, fasted): 3300 ng/mL; Tmax ([3]; 5 mg/kg oral gavage, fasted): 0.67 h; half-life ([3]; 5 mg/kg oral gavage, fasted): 5.21 h; MRT last ([3]; 5 mg/kg oral gavage, fasted): 4.51 h
